Laboratory results: ChEMBL document CHEMBL4020750 (Bioorg Med Chem Lett, 2017)

Legend:
[1] = Inhibition of Trypanosoma brucei methionyl tRNA synthetase using L-methionine as substrate preincubated for 15 mins followed by substrate addition measured after 120 mins in presence of ATP by Kinase Glo chemiluminescence assay
[2] = tested on: Trypanosoma brucei; experiment: Antitrypanosomal activity against Trypanosoma brucei 427 bloodstream forms after 48 hrs by alamar blue assay; assay type: functional; details: Trypanosoma brucei, 427, 48 h
[3] = Cytotoxicity against human CRL8155 cells after 48 hrs by alamar blue assay; assay type: cell-based; details: crl8155, 48 h
[4] = tested on: HepG2; experiment: Cytotoxicity against human HepG2 cells after 48 hrs by alamar blue assay; assay type: cell-based; details: hepg2, 48 h
[5] = Cmax in mouse at 50 mg/kg, administered through oral gavage by LC-MS analysis; assay type: ADME, organism-based; parameters: dose 50 mg/kg, route oral; details: in vivo
[6] = AUC in mouse at 50 mg/kg, administered through oral gavage by LC-MS analysis; assay type: ADME, organism-based; details: in vivo

Row | SMILES | IC50 [1] [nM] | EC50 ([2]; read-out: EC50) [nM] | EC50 ([2]; read-out: pEC50 (converted)) [nM] | Cmax [5] [µM] | AUC [6] [µM·h] | CC50 [3] [nM] | CC50 [4] [nM]
1 | COC(=O)C(NCCN(C)c1nc2nc(Cl)ccc2[nH]1)c1cc(Cl)cc(Cl)c1 (configuration not stated) | 86 | 5270 | – | – | – | – | –
2 | CC(C)Oc1c(Cl)cc(Cl)cc1CN[C@H]1CCCN(c2nc3nc(Cl)ccc3[nH]2)C1 | 305 | 1700 | – | – | – | – | –
3 | Clc1cc(Cl)c2c(c1)C(N[C@H]1CCCN(c3nc4nc(Cl)ccc4[nH]3)C1)CCN2 (some centres not stated) | 89 | 57 | 50.1 | 14.7 | 15.8 | 19000 | 40200
4 | COc1c(Cl)cc(Cl)cc1CN[C@H]1CCCN(c2nc3nc(Cl)ccc3[nH]2)C1 | < 50 | 357 | – | – | – | – | –
5 | CN(CCNC(C(N)=O)c1cc(Cl)cc(Cl)c1)c1nc2nc(Cl)ccc2[nH]1 (configuration not stated) | 75 | 4490 | – | – | – | – | –
6 | CCOc1c(Br)cc(Br)cc1CN[C@H]1CCCN(c2nc3nc(Cl)ccc3[nH]2)C1 | < 50 | 40 | 39.8 | 2.1 | 3.03 | 10500 | 18700
7 | C=CCOc1c(Cl)cc(Cl)cc1CN[C@H]1CCCN(c2nc3nc(Cl)ccc3[nH]2)C1 | < 50 | 326 | – | – | – | – | –
8 | CCOc1c(Cl)cc(Cl)cc1CNCCN(C)c1nc2nc(Cl)ccc2[nH]1 | < 50 | 314 | – | – | – | – | –
9 | CCOc1c(Br)cc(Cl)cc1CN[C@H]1CCCN(c2nc3nc(Cl)ccc3[nH]2)C1 | < 50 | 230 | – | – | – | – | –
10 | CN(CCNC(CO)c1cc(Cl)cc(Cl)c1)c1nc2nc(Cl)ccc2[nH]1 (configuration not stated) | 101 | 995 | – | – | – | – | –
11 | Clc1cc(Cl)c(OC2CC2)c(CN[C@H]2CCCN(c3nc4nc(Cl)ccc4[nH]3)C2)c1 | 389 | 3120 | – | – | – | – | –
12 | Oc1c(Cl)cc(Cl)cc1CN[C@H]1CCCN(c2nc3nc(Cl)ccc3[nH]2)C1 | < 50 | 241 | – | – | – | – | –

Further lines, with some results ahead:

Row | IC50 [1] [nM] | EC50 ([2]; read-out: EC50) [nM] | EC50 ([2]; read-out: pEC50 (converted)) [nM] | Cmax [5] [µM] | AUC [6] [µM·h] | SMILES | CC50 [3] [nM] | CC50 [4] [nM]
13 | < 50 | 359 | – | – | – | CCNc1c(Cl)cc(Cl)cc1CN[C@H]1CCCN(c2nc3nc(Cl)ccc3[nH]2)C1 | – | –
14 | < 50 | 111 | – | – | – | N#Cc1cc(Cl)cc(CN[C@H]2CCCN(c3nc4nc(Cl)ccc4[nH]3)C2)c1 | – | –
15 | < 50 | 85 | 79.4 | – | – | Clc1ccc2nc(N3CCC[C@H](NCc4cc(Br)cc(Br)c4)C3)[nH]c2n1 | 47600 | 39100
16 | < 50 | 334 | – | – | – | COc1c(Br)cc(Br)cc1CN[C@H]1CCCN(c2nc3nc(Cl)ccc3[nH]2)C1 | – | –
17 | < 50 | 827 | – | – | – | CCCOc1c(Cl)cc(Cl)cc1CN[C@H]1CCCN(c2nc3nc(Cl)ccc3[nH]2)C1 | – | –
18 | < 50 | 354 | – | – | – | Clc1cc(Cl)c(Cl)c(CN[C@H]2CCCN(c3nc4nc(Cl)ccc4[nH]3)C2)c1 | – | –
19 | < 50 | 111 | – | – | – | CCOc1c(Cl)cc(Cl)cc1CN[C@H]1CCCN(c2nc3nc(Cl)ccc3[nH]2)C1 | – | –
20 | < 50 | 71 | 63.1 | 19.2 | 78.1 | Clc1cc(Br)cc(CN[C@H]2CCCN(c3nc4nc(Cl)ccc4[nH]3)C2)c1 | 43000 | > 50000
21 | < 50 | 4 | 3.98 | 1.3 | 2.33 | CN(CCN[C@@H]1CCNc2c(Cl)cc(Cl)cc21)c1nc2nc(Cl)ccc2[nH]1 | 18500 | 30600
22 | < 50 | 511 | – | – | – | Clc1cc(Cl)c(OCC2CC2)c(CN[C@H]2CCCN(c3nc4nc(Cl)ccc4[nH]3)C2)c1 | – | –
